Measurements taken from patent US20220010279A1, “KITS AND METHODS FOR PERFORMING OPTICAL DYNAMIC CLAMP ON EXCITABLE CELLS” (CORNELL UNIVERSITY, priority 2018, published 2022).

Tested on: iPSC-CMs
Assay: Paced action potentials (perforated patch clamp; control, EDC or ODC with added IK1) after E-4031 addition
Assay type: cell-based, human
Conditions: for APD90 after E-4031 addition: 500 nM E-4031 perfused 2 minutes, all cells, FIG. 7A
Procedure: Cor.4U hiPSC-CMs (Axiogenesis, Cologne, Germany) were thawed, seeded, and maintained according to the protocols provided by the manufacturer. The cells were seeded on 0.5% gelatin-coated 8 mm coverslips and plated at 100,000 cells/mL. Cells were incubated for at least 7 days post thaw prior to use for experiments.
Adenoviral vector was constructed using the Addgene (Cambridge, Mass.) plasmid pAAV-CAG-ArchT-GFP, deposited by K. Deisseroth's laboratory (plasmid 20940) (Ambrosi C M, et al. Methods Mol Biol. 2014, 1181:215-28; Yu J, et al. Methods Mol Biol. 2016, 1408:303-17). ArchT was expressed in iPSC-CMs using MOIs of 250-300, as described in previously published protocols using an adenovirus (Ambrosi C M, et al. Methods Mol Biol. 2014, 1181:215-28; Yu J, et al. Methods Mol Biol. 2016, 1408:303-1). Determination of successful infection was confirmed via eGFP fluorescence. Functionality of ArchT was confirmed by illuminating the cells with an LED (M565L3, ThorLabs) at 595 nm through a 40× objective and observing the amount of hyperpolarization of the membrane potential under current clamp. Stability of IArchT was measured with a voltage and light clamp protocol over time to investigate rundown with ArchT illumination (FIGS. 18A-18B).
Borosilicate glass pipettes were pulled to a resistance of 1-3 MΩ using a flaming/brown micropipette puller (Model P-1000, Sutter Instrument). The pipettes were filled with intracellular solution containing (mM) 10 NaCl, 130 KCl, 1 MgCl2, 10 CaCl2, 5.5 Dextrose, 10 HEPES. For perforated patch, the pipette was first backfilled by dipping the pipette tip into the intracellular solution for 10 seconds. Only the very tip contained the intracellular solution without any gramicidin to minimize the amount of gramicidin exiting the pipette prior to obtaining a giga-ohm seal. The pipette was then filled with the intracellular solution containing 8 μg/mL gramicidin passed through a 0.25 μm filter. […] The high calcium concentration in the intracellular pipette solution serves to verify the integrity of the patch as patch rupture under these conditions would lead to immediate cell contracture (Ishihara K, et al. J Physiol. 2004, 540(3):831-41). The coverslips containing iPSC-CMs were placed in the bath and constantly perfused with an extracellular solution at 37° C. containing (mM) 137 NaCl, 5.4 KCl, 1 MgSO4, 2 CaCl2, 10 Dextrose, 10 HEPES. GFP-expressing single cells that were visibly contracting were chosen for experiments. Patch-clamp measurements were made by a patch-clamp amplifier (Model 2400, A-M Systems, Inc) controlled by the Real Time eXperiment Interface (RTXI) to coordinate the amplifier via the data acquisition card (PCI-6025E, National Instruments). The voltage was corrected for the calculated liquid junction potential of −2.8 mV. RTXI was also used to control the LED light intensity. The series resistance was less than 10 MΩ and was not compensated.
To test the feasibility of using ArchT to inject a target current, stimulated action potentials under the EDC system were compared to those of the ODC platform at three different pacing frequencies: 0.5, 1 and 2 Hz. The cells were stimulated 10 times at 0.5, 1 and 2 Hz sequentially under three conditions (the order of which was randomized): (A) control, in which no additional current was added, (B) addition of Itarget with EDC, and (C) and addition of Itarget with ODC.
After the cells had undergone the aforementioned pacing protocol under the same three conditions, 500 nM E-4031 (a class III antiarrhythmic drug that blocks potassium channels, primarily of the human ether-a-go-go related gene (hERG) type) was perfused into the bath containing the coverslip of iPSC-CMs for 2 minutes. Experiments were again conducted under the same pacing protocol and conditions to measure the effect of IKr inhibition. […]

## Cc1cccc(CCN2CCC(C(=O)c3ccc(NS(C)(=O)=O)cc3)CC2)n1 [E-4031]
500 nM E-4031, example cell 13 paced at 0.5 Hz, control, EDC and ODC conditions, FIG. 6A-C
  APD with E-4031 addition: increases
500 nM E-4031, paced at 0.5 Hz
  drug-induced APD prolongation, control (without dynamic clamp) cells compared to EDC and ODC: more dramatic
  triangulation (APD90-APD30), control (without dynamic clamp) cells compared to EDC and ODC: larger
Paced at 0.5 Hz, Itarget (IK1) added with EDC
  APD90 after E-4031 addition: increased
Paced at 0.5 Hz, Itarget (IK1) added with ODC
  APD90 after E-4031 addition: increased
Paced at 0.5 Hz, control (no current addition)
  APD90 after E-4031 addition: increased
